Reference: patent US11840686B2, “Modulation of prekallikrein (PKK) expression” (Ionis Pharmaceuticals, Inc., priority 2013, dated 2023)
Strand notation (5' to 3'): a small letter for the sugar, then the base; units joined by * are phosphorothioate-linked, units joined directly phosphodiester-linked; [ ] holds rarer units or linkages, { } end groups; capitals alone tell only the bases. e = 2'-O-(2-methoxyethyl) (MOE); k = constrained ethyl (cEt); [5mC] = 5-methylcytosine; d = 2'-deoxy (DNA)

system: human PKK mRNA; experiment: Antisense inhibition of human PKK mRNA in HepaRG cells, 1,000 nM, MOE/deoxy/cEt oligonucleotides (Example 3); format: cell-based; details: HepaRG cells, 1,000 nM antisense oligonucleotide, Table 29
Outline: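 HepaRG cells at 20,000 per well electroporated with 1,000 nM 16-mer MOE/cEt/deoxy gapmers (phosphorothioate, 5-methylcytosine). After about 24 h, PKK mRNA measured by qRT-PCR with primer probe set RTS3454, normalized to RIBOGREEN total RNA. Reported as percent inhibition versus untreated cells.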

| Substance | % inhibition [%] |
| --- | --- |
| 548573 (e[5mC]*e[5mC]*kA*dG*dT*d[5mC]*dA*d[5mC]*d[5mC]*dA*d[5mC]*d[5mC]*dA*kT*kT*eG; antisense) [compound 548573] | 65 |
| 548594 (e[5mC]*e[5mC]*k[5mC]*dT*dT*d[5mC]*dT*dA*dA*d[5mC]*d[5mC]*dA*dA*kG*kG*eA; antisense) [compound 548594] | 30 |
| 548574 (eG*eG*kT*d[5mC]*dT*dA*dA*d[5mC]*dT*d[5mC]*dT*dA*dA*kG*kG*eG; antisense) [compound 548574] | 0 |

same assay, conditions: HepaRG cells, electroporation with 1,000 nM antisense oligonucleotide, approx. 24 hours, PKK mRNA by RT-PCR (RTS3454), relative to untreated control cells; Table 25 experiment

| Substance | % inhibition [%] |
| --- | --- |
| 548165 (e[5mC]*eG*kA*d[5mC]*d[5mC]*dT*d[5mC]*dG*d[5mC]*dA*dT*dT*dG*kT*k[5mC]*eA; antisense) [compound 548165] | 53 |
| 548202 (eG*e[5mC]*kT*dG*dT*dT*d[5mC]*dT*dA*dA*dT*dG*dT*kG*kG*e[5mC]; antisense) [compound 548202] | 9 |
| 548204 (eT*e[5mC]*kT*dG*dA*d[5mC]*dT*dA*dG*dT*dG*dA*dA*kT*kG*eG; antisense) [compound 548204] | 25 |

same assay, conditions: HepaRG cells, electroporation with 1,000 nM antisense oligonucleotide, approx. 24 hours, PKK mRNA by RT-PCR (RTS3454), relative to untreated control cells; Table 26 experiment

| Substance | % inhibition [%] |
| --- | --- |
| 548273 (antisense eA*eA*kT*d[5mC]*dT*d[5mC]*d[5mC]*dA*d[5mC]*d[5mC]*d[5mC]*d[5mC]*d[5mC]*kG*kA*eA) [compound 548273] | 5 |
| 548228 (eG*eT*kT*dG*dT*dG*dT*dG*dG*d[5mC]*d[5mC]*d[5mC]*dT*k[5mC]*kT*eT; antisense) [compound 548228] | 37 |
| 548243 (eA*eT*kG*d[5mC]*dA*dT*dA*d[5mC]*dT*d[5mC]*dG*d[5mC]*d[5mC]*kT*kT*eT; antisense) [compound 548243] | 0 |
| 548274 (antisense eT*eA*k[5mC]*d[5mC]*dT*dG*dA*d[5mC]*dA*dA*dG*dT*dG*kG*kT*e[5mC]) [compound 548274] | 0 |

same assay, conditions: HepaRG cells, electroporation with 1,000 nM antisense oligonucleotide, approximately 24 hours, primer probe set RTS3454, relative to untreated control cells; experiment of Table 23

| Substance | % inhibition [%] |
| --- | --- |
| 547968 (antisense eT*eT*kA*dG*dA*dA*dT*dG*dG*d[5mC]*dA*dG*dG*kG*kT*eT) [compound 547968] | 37 |
| 547953 (e[5mC]*eT*kA*dT*dA*dT*d[5mC]*d[5mC]*dA*dG*dA*dT*dA*kT*kG*eG; antisense) [compound 547953] | 16 |
| 547977 (antisense e[5mC]*e[5mC]*kT*d[5mC]*d[5mC]*dA*dA*dA*dG*dT*d[5mC]*dA*dA*k[5mC]*kT*e[5mC]) [compound 547977] | 57 |
| 547940 (eT*eT*kT*d[5mC]*dT*dT*dT*dG*dT*dG*dA*d[5mC]*dT*k[5mC]*kG*eA; antisense) [compound 547940] | 71 |
| 547983 (antisense eG*eA*kA*dT*d[5mC]*dA*dT*d[5mC]*dT*dT*dT*dG*dT*kG*k[5mC]*eA) [compound 547983] | 56 |
| 547969 (antisense eT*e[5mC]*k[5mC]*d[5mC]*dG*dG*dG*dT*dA*dA*dA*dT*dT*kT*kT*eA) [compound 547969] | 0 |

same assay, conditions: PKK mRNA, HepaRG cells, 1,000 nM antisense oligonucleotide; Table 31

| Substance | % inhibition [%] |
| --- | --- |
| 548681 (antisense eG*eA*kT*dA*dT*d[5mC]*dA*dT*d[5mC]*dA*dT*d[5mC]*d[5mC]*k[5mC]*kA*eA) [compound 548681] | 22 |
| 548648 (antisense e[5mC]*eA*kG*dT*dT*dG*dT*dA*dT*d[5mC]*d[5mC]*d[5mC]*dT*k[5mC]*k[5mC]*e[5mC]) [compound 548648] | 32 |
| 548679 (antisense eT*e[5mC]*kT*d[5mC]*dA*dA*dG*d[5mC]*dA*dG*d[5mC]*d[5mC]*dT*kA*kT*eT) [compound 548679] | 0 |
| 548636 (antisense e[5mC]*eT*k[5mC]*dT*dA*dT*dA*d[5mC]*dA*dG*d[5mC]*dT*dG*kG*kG*e[5mC]) [compound 548636] | 5 |
| 548646 (antisense e[5mC]*eG*kT*dT*dT*d[5mC]*d[5mC]*d[5mC]*dT*d[5mC]*dA*dA*d[5mC]*kT*k[5mC]*e[5mC]) [compound 548646] | 24 |

same assay, conditions: Table 19; HepaRG cells, electroporation with 1,000 nM antisense oligonucleotide, approximately 24 hours; PKK mRNA by RT-PCR (RTS3454), relative to untreated control cells

| Substance | % inhibition [%] |
| --- | --- |
| 548117 (antisense e[5mC]*eT*k[5mC]*dA*dT*dG*d[5mC]*dT*dG*dG*dT*dG*dA*k[5mC]*kT*eG) [compound 548117] | 73 |
| 548089 (antisense eA*eA*kA*d[5mC]*dT*dA*dA*dG*dG*dG*dA*d[5mC]*d[5mC]*kA*k[5mC]*e[5mC]) [compound 548089] | 34 |

same assay, conditions: Table 20; HepaRG cells, electroporation with 1,000 nM antisense oligonucleotide, approximately 24 hours; PKK mRNA by RT-PCR (RTS3454), relative to untreated control cells

| Substance | % inhibition [%] |
| --- | --- |
| 547853 (antisense eT*eA*kT*dA*dA*dA*dT*dG*dT*d[5mC]*dT*d[5mC]*dG*kA*kT*eG) [compound 547853] | 0 |
| 547886 (e[5mC]*eG*kG*dT*dA*d[5mC]*dT*d[5mC]*dT*dG*d[5mC]*d[5mC]*dT*kT*kG*eT; antisense) [compound 547886] | 97 |
| 547885 (e[5mC]*eT*k[5mC]*dT*dG*d[5mC]*d[5mC]*dT*dT*dG*dT*dG*dA*kA*kA*eT; antisense) [compound 547885] | 45 |
| 547844 (antisense eG*e[5mC]*kA*d[5mC]*dT*dT*dA*dT*dT*dT*dG*dA*dT*kG*kA*e[5mC]) [compound 547844] | 13 |

same assay, conditions: Table 21 experiment; HepaRG cells, electroporation with 1,000 nM antisense oligonucleotide, approx. 24 hours; PKK mRNA by RT-PCR (RTS3454), relative to untreated control cells

| Substance | % inhibition [%] |
| --- | --- |
| 547821 (e[5mC]*eA*kA*dA*d[5mC]*d[5mC]*dT*dT*dT*dT*d[5mC]*dT*d[5mC]*k[5mC]*kA*eT; antisense) [compound 547821] | 44 |
| 547791 (antisense eA*e[5mC]*kT*dG*dT*dA*dG*d[5mC]*dA*dA*dA*d[5mC]*dA*kA*kG*eG) [compound 547791] | 49 |
| 547825 (eT*e[5mC]*kG*dA*dT*dG*dT*dA*d[5mC]*dT*dT*dT*dT*kG*kG*e[5mC]; antisense) [compound 547825] | 59 |
| 547801 (eT*eA*k[5mC]*dA*dT*dG*dG*dA*dA*dG*d[5mC]*dT*dA*k[5mC]*kA*eT; antisense) [compound 547801] | 11 |

same assay, conditions: Table 22 experiment; HepaRG cells, electroporation with 1,000 nM antisense oligonucleotide, approx. 24 hours; PKK mRNA by RT-PCR (RTS3454), relative to untreated control cells

| Substance | % inhibition [%] |
| --- | --- |
| 547853 (antisense eT*eA*kT*dA*dA*dA*dT*dG*dT*d[5mC]*dT*d[5mC]*dG*kA*kT*eG) [compound 547853] | 30 |
| 547886 (e[5mC]*eG*kG*dT*dA*d[5mC]*dT*d[5mC]*dT*dG*d[5mC]*d[5mC]*dT*kT*kG*eT; antisense) [compound 547886] | 89 |
| 547885 (e[5mC]*eT*k[5mC]*dT*dG*d[5mC]*d[5mC]*dT*dT*dG*dT*dG*dA*kA*kA*eT; antisense) [compound 547885] | 57 |
| 547844 (antisense eG*e[5mC]*kA*d[5mC]*dT*dT*dA*dT*dT*dT*dG*dA*dT*kG*kA*e[5mC]) [compound 547844] | 76 |

same assay, conditions: Table 28; HepaRG cells, 1,000 nM antisense oligonucleotide; human PKK mRNA

| Substance | % inhibition [%] |
| --- | --- |
| 548515 (antisense eA*e[5mC]*k[5mC]*d[5mC]*dG*dT*d[5mC]*dA*dG*d[5mC]*d[5mC]*dT*d[5mC]*kA*kG*e[5mC]) [compound 548515] | 59 |
| 548476 (eG*e[5mC]*kA*dA*dA*dT*d[5mC]*d[5mC]*dT*dT*d[5mC]*d[5mC]*dA*kG*k[5mC]*eA; antisense) [compound 548476] | 27 |
| 548481 (eG*eT*kT*d[5mC]*d[5mC]*d[5mC]*dT*dG*dA*dG*dG*dA*dA*k[5mC]*kG*eG; antisense) [compound 548481] | 2 |
| 548469 (eT*eT*k[5mC]*d[5mC]*d[5mC]*dT*dA*d[5mC]*d[5mC]*d[5mC]*d[5mC]*dT*dG*kG*kT*eA; antisense) [compound 548469] | 0 |

same assay, conditions: Table 30; human PKK mRNA, HepaRG cells, 1,000 nM antisense oligonucleotide

| Substance | % inhibition [%] |
| --- | --- |
| 548449 (eA*eT*k[5mC]*dA*d[5mC]*dT*dG*dT*d[5mC]*d[5mC]*dT*dA*dT*kG*kT*e[5mC]; antisense) [compound 548449] | 62 |
| 548400 (eG*eG*kG*d[5mC]*dT*d[5mC]*d[5mC]*dT*dA*dT*dT*d[5mC]*d[5mC]*kA*k[5mC]*e[5mC]; antisense) [compound 548400] | 13 |
| 548434 (antisense eA*e[5mC]*kA*dA*dT*dA*dT*d[5mC]*dA*d[5mC]*dT*dG*dT*kA*k[5mC]*e[5mC]) [compound 548434] | 63 |
| 548433 (antisense eT*eA*kT*d[5mC]*dA*d[5mC]*dT*dG*dT*dA*d[5mC]*d[5mC]*dT*kA*kT*eA) [compound 548433] | 33 |
